Measurements reported in patent publication US10975056B2 (GlaxoSmithKline Intellectual Property Development Limited, priority 2016, dated 2021).
Structures can show the parent of a compound that is named as a salt.

Columns and labels:
DNMT1 = DNMT1 (Homo sapiens, UniProt P26358); assay: DNMT1 biochemical activity, breaklight assay and/or SPA assay; conditions: binned activity in either the breaklight or the SPA assay; for IC50: read-out: DNMT1 BioChemical (pIC50 category) (converted)
[1] = test system: erythroid progenitor cells (EPCs); assay: Fetal hemoglobin (HbF) ELISA in day 7 erythroid progenitor cells; type: cell-based, human; conditions: Homo sapiens, Erythroid progenitor cell, HbF ELISA, day 7 EPCs, 5 days; read-out: EPC ELISA (pEC50 category) (converted);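 also: for fetal hemoglobin induction normalized to vehicle-treated cells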
Method in brief: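 Day 7 EPCs from human bone marrow CD34+ cells were plated at 1,000 cells/well in media with 3 U/mL rhEPO. They were exposed to a 22-point dilution ([…]) for 5 days at 37 °C. Lysate HbF was measured by sandwich ELISA (OD450) and normalized to DMSO control wells.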

MV-4-11 AML cells = assay: MV-4-11 cell proliferation assay (CellTiter-Glo, 6 days); type: cell-based; conditions: Homo sapiens, MV4-11, 144 h; 6 days treatment; binning as pXC50; read-out: MV4-11 Anti-proliferative activity (EC50 category)
Description: MV-4-11 Anti-Proliferative Activity (pEC50 Category)
Cell proliferation assay. Optimal cell seeding density was determined empirically for MV-4-11 AML cells by examining the growth of a wide range of seeding densities in a 384-well format to identify conditions that permitted maximal and continued proliferation for 6 days. MV-4-11 cells were plated in duplicate plates 24 hours before treatment with a 20-point two-fold dilution series of compound or 0.15% DMSO. Plates were incubated for 6 days at 37° C. in 5% CO2. Cells were then lysed with CellTiter-Glo (CTG) (Promega) and chemiluminescent signal was detected with an appropriate microplate reader. In addition, an untreated plate of cells was harvested at the time of compound addition (T0) to quantify the initial cell density. CTG values obtained after 6 days of treatment were expressed as a percent of the T0 value and plotted against compound concentration. Data were fit with a four parameter equation to generate a concentration response curve from which growth IC50 values were calculated.

human full length DNMT1 = human full length DNMT1 (Homo sapiens (Human), UniProt P26358); assay: DNMT1 breaklight assay; type: biochemical; conditions: repeated experimental runs, read-out: average IC50 against DNMT1
Description: DNMT1 breaklight in vitro assays were conducted in a total volume of 50 μl in a standard 384 well format, using black non-binding surface microplates (Corning 3575). Five μl of human full length DNMT1 (produced internally), used at a final concentration of 40 nM, was added to 5 μl of substrate mixture containing final concentrations of 125 nM hemi methylated oligonucleotide (synthesized at ATD Bio; 5′-FAM-[…]5[…]5G5TAGAT-3′ where 5=methyl deoxycitidine) and 2 μM ultrapure SAM (Cisbio #62SAHZLD). Negative control wells used 5 μl of DNMT1 and 5 μl of oligonucleotide but 0 μM SAM. All reagents were made up in 1× assay buffer (20 mM Tris pH 6.8, 25 mM NaCl, 0.5 mM MgCl2, 0.01% Triton X100 and 1 mM DTT). The reaction was incubated at 26° C. for 45 min and then stopped with the addition of 40 μl detection reagent. Detection reagent, made up in 1× Gla assay buffer (20 mM Tris pH 8.0, 80 mM NaCl, 0.75 mM MgCl2, 0.01% Triton X100 and 1 mM DTT) has a final concentration of 100 μM SAH (Sigma #A9384) and 0.0008 units/μl Gla1 restriction endonuclease (Sibenzyme #E494). Following addition of the detection reagent the plate was incubated in the dark at room temperature for 5 hr. Fluorescence intensity was then measured on the PHERAstar FS (BMG Labtech) at Ex 485 nm and Em 520 nm, with a gain of 400 and an integration time of 100 ms.

Chain of DNMT1 (P26358 whole entry, looked up): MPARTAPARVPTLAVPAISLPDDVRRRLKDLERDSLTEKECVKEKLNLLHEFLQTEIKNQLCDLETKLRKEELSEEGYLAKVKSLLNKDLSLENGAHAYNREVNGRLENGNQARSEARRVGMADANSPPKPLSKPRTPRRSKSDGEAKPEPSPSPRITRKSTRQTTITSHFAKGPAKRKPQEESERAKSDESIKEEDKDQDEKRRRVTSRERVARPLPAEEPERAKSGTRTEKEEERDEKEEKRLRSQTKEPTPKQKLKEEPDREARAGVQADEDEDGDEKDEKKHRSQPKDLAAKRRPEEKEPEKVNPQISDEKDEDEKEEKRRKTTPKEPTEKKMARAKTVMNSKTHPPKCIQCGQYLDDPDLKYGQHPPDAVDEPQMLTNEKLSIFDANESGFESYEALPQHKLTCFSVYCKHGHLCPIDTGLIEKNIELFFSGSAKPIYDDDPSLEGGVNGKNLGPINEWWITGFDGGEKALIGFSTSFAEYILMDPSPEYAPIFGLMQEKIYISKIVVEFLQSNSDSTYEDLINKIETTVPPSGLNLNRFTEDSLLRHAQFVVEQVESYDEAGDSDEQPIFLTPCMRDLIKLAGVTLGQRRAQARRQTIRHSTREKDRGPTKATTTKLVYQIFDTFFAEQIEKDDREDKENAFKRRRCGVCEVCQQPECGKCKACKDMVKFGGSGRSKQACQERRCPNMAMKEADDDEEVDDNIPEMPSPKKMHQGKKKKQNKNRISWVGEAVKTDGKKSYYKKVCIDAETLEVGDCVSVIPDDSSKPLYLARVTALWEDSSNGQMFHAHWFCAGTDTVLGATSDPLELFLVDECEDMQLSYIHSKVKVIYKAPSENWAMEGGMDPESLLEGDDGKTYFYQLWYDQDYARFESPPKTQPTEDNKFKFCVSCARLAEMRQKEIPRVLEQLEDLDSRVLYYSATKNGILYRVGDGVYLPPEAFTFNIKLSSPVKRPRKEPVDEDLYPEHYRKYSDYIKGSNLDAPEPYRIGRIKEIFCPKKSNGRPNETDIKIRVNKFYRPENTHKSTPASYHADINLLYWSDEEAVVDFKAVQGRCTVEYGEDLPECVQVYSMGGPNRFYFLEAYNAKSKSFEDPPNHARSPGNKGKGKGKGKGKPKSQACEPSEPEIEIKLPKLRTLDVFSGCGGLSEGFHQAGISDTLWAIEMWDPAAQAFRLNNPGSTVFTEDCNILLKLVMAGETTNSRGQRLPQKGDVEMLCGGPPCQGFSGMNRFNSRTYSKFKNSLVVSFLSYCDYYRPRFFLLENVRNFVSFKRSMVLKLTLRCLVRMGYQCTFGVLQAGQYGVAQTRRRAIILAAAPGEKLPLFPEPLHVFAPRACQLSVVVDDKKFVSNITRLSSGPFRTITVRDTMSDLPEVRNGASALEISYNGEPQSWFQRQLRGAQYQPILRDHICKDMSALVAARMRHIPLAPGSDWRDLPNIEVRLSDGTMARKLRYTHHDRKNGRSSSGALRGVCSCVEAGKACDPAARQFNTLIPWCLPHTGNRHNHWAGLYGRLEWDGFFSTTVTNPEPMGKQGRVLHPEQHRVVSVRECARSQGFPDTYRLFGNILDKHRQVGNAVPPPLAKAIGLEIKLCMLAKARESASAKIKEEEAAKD
Chain of human full length DNMT1 (P26358 whole entry): as the sequence (P26358 whole entry, looked up) above

SMILES | DNMT1 BioChemical (pIC50 category) (DNMT1) | EC50 [1] | EC50 (MV-4-11 AML cells) | IC50 (human full length DNMT1) | IC50 (DNMT1)
N#Cc1c(SC(C(N)=O)c2ccccc2)nc(N2CCC(N3CCCC3)CC2)c(C#N)c1C1CC1 (centres unmarked) [Example 42, 2-((3,5-Dicyano-4-cyclopropyl-6-(4-(pyrrolidin-1-yl)piperidin-1-yl)pyridin-2-yl)thio)-2-phenylacetamide trifluoroacetate] | D (Category D: ≥6.5) | < 316 nM | 316 to 1000 nM |  | 
CN1CCN(c2nc(SC(C(N)=O)c3ccccc3)c(C#N)c(C3CC3)c2C#N)CC1=O (centres unmarked) [Example 22] |  | < 316 nM |  | > 750 nM | 316 to 1000 nM
N#Cc1c(SC(C(N)=O)c2ccncc2)nc(N2CC[C@H](O)C2)c(C#N)c1C1CC1 (stereo partly drawn) [Example 34, 2-((3,5-dicyano-4-cyclopropyl-6-((S)-3-hydroxypyrrolidin-1-yl)pyridin-2-yl)thio)-2-(pyridin-4-yl)acetamide] |  | 1000 to 31600 nM | 1000 to 31600 nM |  | 316 to 1000 nM
CCN1CCCN(c2nc(SC(C(N)=O)c3ccccc3)c(C#N)c(C3CC3)c2C#N)CC1 (centres unmarked) [Example 5, 2-{[3,5-dicyano-4-cyclopropyl-6-(4-ethyl-1,4-diazepan-1-yl)pyridin-2-yl]sulfanyl}-2-phenylacetamide] | D (Category D: ≥6.5) | < 316 nM |  | ≤ 500 nM | 
CN(C)C1CCCN(c2nc(SC(C(N)=O)c3ccccc3)c(C#N)c(C3CC3)c2C#N)C1 (centres unmarked) [Example 18, 2-((3,5-Dicyano-4-cyclopropyl-6-(3-(dimethylamino)piperidin-1-yl)pyridin-2-yl)thio)-2-phenylacetamide] | D (Category D: ≥6.5) | < 316 nM | 1000 to 31600 nM |  | 
N#Cc1c(SC(C(N)=O)c2ccncc2)nc(N2CCCNCC2)c(C#N)c1C1CC1 (centres unmarked) [Example 31, 2-((3,5-dicyano-4-cyclopropyl-6-(1,4-diazepan-1-yl)pyridin-2-yl)thio)-2-(pyridin-4-yl)acetamide] |  | > 31600 nM | 1000 to 31600 nM |  | 316 to 1000 nM
CC1CN(c2nc(SC(C(N)=O)c3ccccc3)c(C#N)c(C3CC3)c2C#N)CC(C)O1 (centres unmarked) [Example 21, 2-((3,5-Dicyano-4-cyclopropyl-6-(2,6-dimethylmorpholino)pyridin-2-yl)thio)-2-phenylacetamide] |  | 1000 to 31600 nM |  | > 750 nM | 316 to 1000 nM
CCCN1CCN(c2nc(SC(C(N)=O)c3ccccc3)c(C#N)c(CC)c2C#N)CC1 (centres unmarked) [Example 12, 2-{[3,5-dicyano-4-ethyl-6-(4-propylpiperazin-1-yl)pyridin-2-yl]sulfanyl}-2-phenylacetamide] |  | 316 to 1000 nM |  | ≤ 500 nM | 316 to 1000 nM
CCc1c(C#N)c(SC(C(N)=O)c2ccccc2)nc(N(C)CCN2CCOCC2)c1C#N (centres unmarked) [Example 11, 2-[(3,5-dicyano-4-ethyl-6-{methyl[2-(morpholin-4-yl)ethyl]amino}pyridin-2-yl)sulfanyl]-2-phenylacetamide] |  | 316 to 1000 nM |  | 580 nM | 316 to 1000 nM
N#Cc1c(SC(C(N)=O)c2ccccc2)nc(N2CCNC(=O)C2)c(C#N)c1C1CC1 (centres unmarked) [Example 15, 2-{[3,5-dicyano-4-cyclopropyl-6-(3-oxopiperazin-1-yl)pyridin-2-yl]sulfanyl}-2-phenylacetamide] |  | 1000 to 31600 nM |  | 440 nM | 316 to 1000 nM
N#Cc1c(SC(C(N)=O)c2ccccc2)nc(N2CCCC(N)C2)c(C#N)c1C1CC1 (centres unmarked) [Example 25, 2-((6-(3-aminopiperidin-1-yl)-3,5-dicyano-4-cyclopropylpyridin-2-yl)thio)-2-phenylacetamide] | D (Category D: ≥6.5) | < 316 nM |  | ≤ 500 nM | 
CC1CN(c2nc(SC(C(N)=O)c3ccccc3)c(C#N)c(C3CC3)c2C#N)CC(C)N1 (centres unmarked) [Example 20] |  | < 316 nM |  | ≤ 500 nM | 
N#Cc1c(SC(C(N)=O)c2ccccc2)nc(N2CCC(N)CC2)c(C#N)c1C1CC1 (centres unmarked) [Example 28, 2-((6-(4-aminopiperidin-1-yl)-3,5-dicyano-4-cyclopropylpyridin-2-yl)thio)-2-phenylacetamide] | D (Category D: ≥6.5) | < 316 nM |  | ≤ 500 nM | 
CCc1c(C#N)c(SC(C(N)=O)c2ccccc2)nc(N2CCC3(CCO3)C2)c1C#N (centres unmarked) [Example 36, 2-((3,5-Dicyano-4-ethyl-6-(1-oxa-6-azaspiro[3.4]octan-6-yl)pyridin-2-yl)thio)-2-phenylacetamide] | D (Category D: ≥6.5) | 1000 to 31600 nM |  | > 750 nM | 

More lines, now with the values ahead:

DNMT1 BioChemical (pIC50 category) (DNMT1) | EC50 [1] | EC50 (MV-4-11 AML cells) | IC50 (human full length DNMT1) | IC50 (DNMT1) | SMILES
D (Category D: ≥6.5) | < 316 nM | < 316 nM |  |  | CCc1c(C#N)c(SC(C(N)=O)c2ccccc2)nc(N(C)CC(N)=O)c1C#N (centres unmarked) [Example 145, 2-((6-((2-Amino-2-oxoethyl)(methyl)amino)-3,5-dicyano-4-ethylpyridin-2-yl)thio)-2-phenylacetamide]
D (Category D: ≥6.5) | < 316 nM |  | ≤ 500 nM |  | CCc1c(C#N)c(SC(C(N)=O)c2ccccc2)nc(N2C[C@@H](C)N[C@@H](C)C2)c1C#N (stereo partly drawn) [Example 61, 2-((3,5-Dicyano-6-((3S,5R)-3,5-dimethylpiperazin-1-yl)-4-ethylpyridin-2-yl)thio)-2-phenylacetamide]
D (Category D: ≥6.5) | < 316 nM | 316 to 1000 nM |  |  | CCc1c(C#N)c(SC(C(N)=O)c2ccccc2)nc(N2CCCN(CCO)CC2)c1C#N (centres unmarked) [Example 318, 2-((3,5-Dicyano-4-ethyl-6-(4-(2-hydroxyethyl)-1,4-diazepan-1-yl)pyridin-2-yl)thio)-2-phenylacetamide]
 | 316 to 1000 nM | 1000 to 31600 nM |  | 316 to 1000 nM | N#Cc1c(SC(C(N)=O)c2ccccc2)nc(N2CCCC(O)C2)c(C#N)c1C1CC1 (centres unmarked) [Example 164, 2-(3,5-Dicyano-4-cyclopropyl-6-(3-hydroxypiperidin-1-yl)pyridin-2-ylthio)-2-phenylacetamide]
D (Category D: ≥6.5) | < 316 nM | 1000 to 31600 nM |  |  | CCc1c(C#N)c(SC(C(N)=O)c2ccccc2)nc(N2CCN(CCN)CC2)c1C#N (centres unmarked) [Example 123, 2-((6-(4-(2-Aminoethyl)piperazin-1-yl)-3,5-dicyano-4-ethylpyridin-2-yl)thio)-2-phenylacetamide]
 | 1000 to 31600 nM |  | ≤ 500 nM | 316 to 1000 nM | CCc1c(C#N)c(SC(C(N)=O)c2ccccc2)nc(N2CCN(CCCN)CC2)c1C#N (centres unmarked) [Example 37, 2-((6-(4-(3-aminopropyl)piperazin-1-yl)-3,5-dicyano-4-ethylpyridin-2-yl)thio)-2-phenylacetamide]
D (Category D: ≥6.5) | 1000 to 31600 nM | 1000 to 31600 nM |  |  | CCc1c(C#N)c(SC(C(N)=O)c2ccccc2)nc(N2CCC3(CNC3)C2)c1C#N (centres unmarked) [Example 44, 2-((3,5-Dicyano-4-ethyl-6-(2,6-diazaspiro[3.4]octan-6-yl)pyridin-2-yl)thio)-2-phenylacetamide]
D (Category D: ≥6.5) | 316 to 1000 nM |  | ≤ 500 nM |  | CCc1c(C#N)c(SC(C(N)=O)c2ccccc2)nc(N2CCC3(CC2)CNC3)c1C#N (centres unmarked) [Example 43, 2-((3,5-Dicyano-4-ethyl-6-(2,7-diazaspiro[3.5]nonan-7-yl)pyridin-2-yl)thio)-2-phenylacetamide]
D (Category D: ≥6.5) | 1000 to 31600 nM |  | > 750 nM |  | CCc1c(C#N)c(SC(C(N)=O)c2ccccc2)nc(N2CCC2)c1C#N (centres unmarked) [Example 58, 2-[[6-(azetidin-1-yl)-3,5-dicyano-4-ethyl-2-pyridyl]sulfanyl]-2-phenyl-acetamide]
